The values that follow come from US4704361A, “Pharmaceutical compositions containing the cytidine monophospate of 5-acetamido-3,5-dideoxy-D-glycero-D-galactononulosaminic acid and a method for preparing said compound” (Compagnia di Ricerca Chimica S.p.A., priority 1983, dated 1987).

Like-named read-outs stand apart in the source and are kept apart here.

A short description of series [1]: Adsorption and distribution of labeled CMP-NANA in the rat. As to conditions: 20 mg/kg i.m.; for Radioactivity level: Blood; for tissue uptake at 0.5 h / tissue uptake at 1 h / tissue uptake at 2 h / tissue uptake at 4 h: im, read-out: Radioactivity level. It counts as in vivo. The protocol: CMP-NANA [9-^3 H] has been purchased from NEN (New England Nuclear, 6072 Dreieich, West Germany).
The rats fasting for about 18 hours, have been treated with CMP-NANA, dissolved in the phosphate buffer, at the dose of 20 mg/kg i.m. (specific activity=1000 mCi/mg). After 30 min., 1 hour, 2 hours and 4 hours periods the animals have been sacrified in the groups of 4, then liver, kidney and brain have been taken away from the animals and accurately weighted.
100 μg samples of the previous organs, and an analogous sample of the blood have been dissolved in Soluene 350 (Packard) and have been counted on the scintillation instrument in the liquid phase, on addition of the scintillating liquid.
The measurements have been quantized using a canal to canal-ratio technique. Table 3 illustrates the averaged results of all measurements.

Series [2] relates to Striatal gangliosides. As to the kind of experiment: Levels of striatal gangliosides of the rat following injuries by kainic acid. It counts as in vivo. As to conditions: Group 3: kainic acid alone, 2 μg into striatum; relative to control = 100%. On the procedure:
Male rats, Charles River CD, body weight of 180-200 g, have been divided into 4 groups, each group having 20 animals. The first group has been classified as the control group, the second group has been treated with physiological solution, the third group has been treated with kainic acid and the fourth group has been treated with CMP-NANA (20 mg/kg/day, i.p.) and kainic acid.
The treatment with CMP-NANA has been started one week before the treatment with kainic acid and has been continued until the animals have been sacrified.
The animals have been anesthetized with pentobarbital (60 mg/kg i.p.) and then treated with kainic acid (2 μg in 1 μl of the physiological solution), that has been injected into striatum.
The control rats have been treated with an equal volume (1 μl) of the physiological solution.
After 7 days the rats have been sacrified and the striatum has been removed. Each single determination has been performed with the pool of 5 samples. The gangliosides have been extracted and determined (as NANA content) as described previously.

Regarding `[3H]C(O)[C@@H](O)[C@@H](O)[C@@H]1O[C@](OP(=O)(O)OC[C@H]2O[C@@H](n3ccc(N)nc3=O)[C@H](O)[C@@H]2O)(C(=O)O)C[C@H](O)[C@H]1NC(C)=O` (stereo partly shown) [[^-3 H]-labeled CMP--NANA], in series [1], the “radioactivity decline in blood and organs (in words)” value was “rapidly diminished in the blood, and more slowly in the organs”. The “radioactivity level of the brain relative to liver and kidney (in words)” value in series [1] was “inferior to those of the liver and kidney”. For the same compound, the Radioactivity level in series [1] (30 min) was 12.2 % of the administrated dose pe; in series [1] (1 hr) it was 5.7 % of the administrated dose pe; in series [1] (2 hrs) it was 3.2 % of the administrated dose pe; in series [1] (4 hrs), 1.9 % of the administrated dose pe. The tissue uptake at 0.5 h came to 6.2 %ID/g in series [1] (Brain, 30 min); 2.6 %ID/g in series [1] (Kidney, 30 min); 3.9 %ID/g in series [1] (Liver, 30 min). Also, the tissue uptake at 1 h worked out at 7.8 %ID/g in series [1] (Brain, 1 hr); 5.2 %ID/g in series [1] (Kidney, 1 hr); 4.7 %ID/g in series [1] (Liver, 1 hr). Also, the tissue uptake at 2 h amounted to 4.9 %ID/g in series [1] (Brain, 2 hrs); 3.3 %ID/g in series [1] (Kidney, 2 hrs); 2.8 %ID/g in series [1] (Liver, 2 hrs). The tissue uptake at 4 h turned out to be 2.4 %ID/g in series [1] (Brain, 4 hrs); 1.6 %ID/g in series [1] (Kidney, 4 hrs); 0.9 %ID/g in series [1] (Liver, 4 hrs).

As to `C=C(C)[C@H]1CN[C@H](C(=O)O)[C@H]1CC(=O)O` [kainic acid, reference compound], the “Striatal gangliosides (NANA content)” value in series [2] is given as 66%.
